These results are taken from US20090227619A1, “Harmine derivatives, intermediates used in their preparations, preparation processes and use therefo” (priority 2003, published 2009).

The IC50 is the point on the concentration scale where inhibition reaches its midpoint. Usually melting point stands for the temperature, or range, at which the solid turns liquid.

Each structure is given as a SMILES string. “And” between values parts separate entries of the source, which are not always exact repeats. Identical values can stand only once. Like-named read-outs stand apart in the source and are kept apart here.

One series has as its system HepG2. The series can be described thus: In vitro cytotoxicity, IC50 by MTT method, HepG2. The series is classed as cell-based, human. To be noted: HepG2 cell strain, read-out: IC50 HepG2. In outline:
(§1)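 Cells in RPMI1640 with 10% FBS at 37° C, 5% CO2 were seeded at 10^5/ml and exposed to a compound concentration gradient for 48 h, at least three replicates, solvent controls.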
On the technique in general: Tetrazolium dyes change colour on reduction, which living cells bring about.

The next series has as its system PLA-801. Description: In vitro cytotoxicity, IC50 by MTT method, PLA-801. The series is classed as cell-based. Particulars: PLA-801 cell strain; read-out: IC50 PLA-801. In outline: as §1
Another series concerns Bel-7402. The series can be described thus: In vitro cytotoxicity, IC50 by MTT method, Bel-7402. It is filed as cell-based. To be noted: Bel7402 cell strain, read-out: IC50 Bel7402. A digest of the protocol: as §1
A further series deals with BGC-823. The series can be described thus: In vitro cytotoxicity, IC50 by MTT method, BGC-823. The series is classed as cell-based. Particulars: BGC823 cell strain, read-out: IC50 BGC823. A digest of the protocol: as §1
Another series relates to Hela. Description: In vitro cytotoxicity, IC50 by MTT method, Hela. The series is classed as cell-based. To be noted: Hela cell strain, read-out: IC50 Hela. In outline:
as §1

The test system of another series is Lovo. The series can be described thus: In vitro cytotoxicity, IC50 by MTT method, Lovo. The series is classed as cell-based. Particulars: Lovo cell strain, read-out: IC50 Lovo. In outline: as §1
A further series relates to NIH3T3. Description: In vitro cytotoxicity, IC50 by MTT method, NIH3T3. The series is classed as cell-based. To be noted: NIH3T3 cell strain, read-out: IC50 NIH3T3. In outline:
as §1

The test system of the next series is CT-DNA. The series can be described thus: UV absorption spectrum method with CT-DNA. To be noted: CT-DNA 40 ug/ml, compound 20 uM, 37° C. for 2 h, OD at 260 nm. It is filed as binding. As to the method: Compounds to be tested (20 uM) were added into the PE buffer solution, and its scan curve was identified by the spectrograph at a wavelength of from 200 to 400 nm. CT-DNA (40 ug/ml) and compounds to be tested (20 uM) were added into the PE buffer solution. The mixture was cultured at 37° C. for 2 h, and its scan curve was identified by the UV spectrograph at a wavelength of from 200 to 400 nm. […] After that, the OD value at 260 nm of the scan curve of the medicaments tested and that of the CT-DNA mixture OD value at 260 nm of the scan curve were calculated and compared to determine the influences of the medicaments tested on the UV absorption spectrum of the DNA molecules.

Series [1] in a line: Solubility (physico-chemical data tables). To be noted: qualitative.
[2] abbreviates: Table 15, 1,3,9-substituted β-carboline derivatives.

`O=C(O)c1cc2c3ccccc3n(Cc3c(F)c(F)c(F)c(F)c3F)c2cn1` [Compound 49, 9-(2′,3′,4′,5′,6′-pentafluoro)benzyl-β-carboline-3-carboxylic acid]: the half-maximal inhibitory concentration (IC50) in the series on HepG2 is 30 µM; in the series with PLA-801 it was 90 µM; in the series on Bel-7402, 60 µM; with BGC-823 it was 40 µM; in the series with Hela, 40 µM; with Lovo, 10 µM. For the same molecule, the IC50 with NIH3T3 was 20 µM. In addition, the “Influence on the UV absorption of DNA” value with CT-DNA is “increase the UV absorption of DNA”. In series [1] (Table 12, 3,9-disubstituted β-carboline derivatives), the Solubility result is recorded as “soluble in DMSO”.

As for `Cc1nc(C(=O)O)cc2c3ccccc3n(Cc3c(F)c(F)c(F)c(F)c3F)c12` [Compound 66, 9-(2′,3′,4′,5′,6′-pentafluoro)benzyl-1-methyl-β-carboline-3-carboxylic acid], the IC50 with HepG2 was found to be 120 µM; in the series with PLA-801 it was 190 µM; in the series with Bel-7402, 120 µM; in the series with BGC-823 it was 160 µM; with Hela it was 110 µM; in the series on Lovo, 80 µM. In addition, the IC50 in the series with NIH3T3 turned out to be 80 µM. Further, the “Influence on the UV absorption of DNA” value in the series with CT-DNA is given as “increase the UV absorption of DNA”. The Solubility result in series [1] (setting [2]) is recorded as “soluble in DMSO”.

As for `Cn1c2ccccc2c2cc(C(=O)O)nc(-c3ccccc3)c21` [Compound 78, 9-methyl-1-phenyl-β-carboline-3-carboxylic acid], the melting point is 223 to 234 °C and 223 to 224 °C. Further, in the series with HepG2 (Homo sapiens), the IC50 was 160 µM. Moreover, the concentration for half-maximal inhibition (IC50) with PLA-801 turned out to be 650 µM. In the series with Bel-7402 (Homo sapiens, Bel-7402), the half-inhibitory concentration (IC50) worked out at 280 µM. In addition, the IC50 with BGC-823 (Homo sapiens, BGC-823) came out at 210 µM. In addition, the IC50 in the series with Hela (Homo sapiens) stood at 170 µM. For the same molecule, the IC50 in the series on Lovo (Homo sapiens) stood at 110 µM. In addition, the IC50 in the series with NIH3T3 (Mus musculus) stood at 150 µM. For the same molecule, the Solubility entry in series [1] (setting [2]) is reported as “soluble in DMSO”.

`CCn1c2ccccc2c2cc(C(=O)O)nc(-c3ccccc3)c21` [Compound 79, 9-ethyl-1-phenyl-β-carboline-3-carboxylic acid] registered a melting point of 194 to 195 °C. Moreover, in the series on HepG2 (Homo sapiens), the IC50 was 160 µM. The IC50 in the series on PLA-801 came out at 110 µM. Further, the IC50 with Bel-7402 (Homo sapiens, Bel-7402) stood at 140 µM. The IC50 in the series on BGC-823 (Homo sapiens, BGC-823) was found to be 250 µM. Further, in the series on Hela (Homo sapiens), the IC50 turned out to be 140 µM. Moreover, in the series with Lovo (Homo sapiens), the IC50 came out at 100 µM. In the series on NIH3T3 (Mus musculus), the IC50 was found to be 120 µM. The Solubility result in series [1] (setting [2]) is listed as “soluble in DMSO”.
